In PubChem BioAssay (NCI):
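A five-concentration, 48-hour dose response in 96-well plates underlies each endpoint, interpolated linearly between surrounding concentrations. The concentration for full growth arrest is given as TGI.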

What was measured:
Assay in all cases: inhibition of tumour cell growth, NCI panel, 48 h
CCRF-CEM leukemia = tested on: CCRF-CEM leukemia
ACHN renal = tested on: ACHN renal
SF-539 CNS = tested on: SF-539 CNS
UACC-62 melanoma = tested on: UACC-62 melanoma
EKVX NSCLC = tested on: EKVX NSCLC
M19-MEL melanoma = tested on: M19-MEL melanoma
SW-620 colon = tested on: SW-620 colon
HOP-18 NSCLC = tested on: HOP-18 NSCLC
SNB-75 CNS = tested on: SNB-75 CNS
CAKI-1 renal = tested on: CAKI-1 renal
KM12 colon = tested on: KM12 colon
MALME-3M melanoma = tested on: MALME-3M melanoma
HOP-92 NSCLC = tested on: HOP-92 NSCLC
SK-OV-3 ovarian = tested on: SK-OV-3 ovarian
HOP-62 NSCLC = tested on: HOP-62 NSCLC
DMS 273 small cell lung = tested on: DMS 273 small cell lung
OVCAR-3 ovarian = tested on: OVCAR-3 ovarian
RPMI-8226 leukemia = tested on: RPMI-8226 leukemia
M14 melanoma = tested on: M14 melanoma
A549 NSCLC = tested on: A549 NSCLC
HT29 colon = tested on: HT29 colon
LOX IMVI melanoma = tested on: LOX IMVI melanoma
COLO 205 colon = tested on: COLO 205 colon
OVCAR-4 ovarian = tested on: OVCAR-4 ovarian
NCI-H23 lung = tested on: NCI-H23 lung
NCI-H460 lung = tested on: NCI-H460 lung
NCI-H522 lung = tested on: NCI-H522 lung
HCC-2998 colon = tested on: HCC-2998 colon
DLD-1 colon = tested on: DLD-1 colon
OVCAR-8 ovarian = tested on: OVCAR-8 ovarian
KM20L2 colon = tested on: KM20L2 colon
TK-10 renal = tested on: TK-10 renal
K-562 leukemia = tested on: K-562 leukemia
MOLT-4 leukemia = tested on: MOLT-4 leukemia
SNB-19 CNS = tested on: SNB-19 CNS
U251 CNS = tested on: U251 CNS
HCT-15 colon = tested on: HCT-15 colon
786-0 renal = tested on: 786-0 renal
SF-268 CNS = tested on: SF-268 CNS
IGROV1 ovarian = tested on: IGROV1 ovarian
SN12C renal = tested on: SN12C renal
SF-295 CNS = tested on: SF-295 CNS
SK-MEL-28 melanoma = tested on: SK-MEL-28 melanoma
SK-MEL-2 melanoma = tested on: SK-MEL-2 melanoma
SK-MEL-5 melanoma = tested on: SK-MEL-5 melanoma
HCT-116 colon = tested on: HCT-116 colon
UO-31 renal = tested on: UO-31 renal
LXFL 529 NSCLC = tested on: LXFL 529 NSCLC
OVCAR-5 ovarian = tested on: OVCAR-5 ovarian
DMS 114 small cell lung = tested on: DMS 114 small cell lung
NCI-H226 lung = tested on: NCI-H226 lung
HL-60(TB) leukemia = tested on: HL-60(TB) leukemia
A498 renal = tested on: A498 renal
SNB-78 CNS = tested on: SNB-78 CNS
UACC-257 melanoma = tested on: UACC-257 melanoma

For `C=C1C(=O)O[C@H]2C[C@@H](C)[C@@H]3CC(=O)OC[C@@]3(C)CC12` (some centres undefined), the TGI (CCRF-CEM leukemia) was 55.6 µM, the TGI (ACHN renal) was 60 µM and the TGI (SF-539 CNS) was 48 µM. It also gave a TGI (UACC-62 melanoma) of 51.9 µM, a TGI (EKVX NSCLC) of over 100 µM and a TGI (M19-MEL melanoma) of over 100 µM. It also gave a TGI (SW-620 colon) of 35.1 µM, a TGI (HOP-18 NSCLC) of over 100 µM and a TGI (SNB-75 CNS) of over 100 µM. For the same molecule, the TGI (CAKI-1 renal) was 51 µM, the TGI (KM12 colon) was 62 µM and the TGI (MALME-3M melanoma) was 35 µM. It also gave a TGI (HOP-92 NSCLC) of 34.8 µM, a TGI (SK-OV-3 ovarian) of over 100 µM and a TGI (HOP-62 NSCLC) of over 100 µM. The TGI (DMS 273 small cell lung) was over 100 µM, the TGI (OVCAR-3 ovarian) was 74.6 µM and the TGI (RPMI-8226 leukemia) was 75.2 µM. It also gave a TGI (M14 melanoma) of 31.6 µM, a TGI (A549 NSCLC) of over 100 µM and a TGI (HT29 colon) of 50.1 µM. For the same molecule, the TGI (LOX IMVI melanoma) was 90.5 µM, the TGI (COLO 205 colon) was 60.7 µM and the TGI (OVCAR-4 ovarian) was 54.4 µM. It also gave a TGI (NCI-H23 lung) of 62.5 µM, a TGI (NCI-H460 lung) of 51 µM and a TGI (NCI-H522 lung) of 12 µM. For the same molecule, the TGI (HCC-2998 colon) was 98.5 µM, the TGI (DLD-1 colon) was 74.3 µM and the TGI (OVCAR-8 ovarian) was 48.3 µM. For the same molecule, the TGI (KM20L2 colon) was 52.2 µM, the TGI (TK-10 renal) was 55.2 µM and the TGI (K-562 leukemia) was 68.5 µM. The TGI (MOLT-4 leukemia) was 57.3 µM, the TGI (SNB-19 CNS) was over 100 µM and the TGI (U251 CNS) was over 100 µM. It also gave a TGI (HCT-15 colon) of over 100 µM, a TGI (786-0 renal) of over 100 µM and a TGI (SF-268 CNS) of over 100 µM. It also gave a TGI (IGROV1 ovarian) of over 100 µM, a TGI (SN12C renal) of 60.8 µM and a TGI (SF-295 CNS) of 76.2 µM. The TGI (SK-MEL-28 melanoma) was 47.8 µM, the TGI (SK-MEL-2 melanoma) was over 100 µM and the TGI (SK-MEL-5 melanoma) was over 100 µM. It also gave a TGI (HCT-116 colon) of over 100 µM and a TGI (UO-31 renal) of over 100 µM.
`Cn1c(O)c(C(=O)Nc2cccs2)c(=O)[nH]c1=S` was tested, and the TGI (CCRF-CEM leukemia) was over 100 µM, the TGI (ACHN renal) was 43.7 µM and the TGI (LXFL 529 NSCLC) was 40.8 µM. For the same molecule, the TGI (SF-539 CNS) was 30.3 µM, the TGI (UACC-62 melanoma) was 27.2 µM and the TGI (M19-MEL melanoma) was 44.3 µM. For the same molecule, the TGI (SW-620 colon) was 87.6 µM, the TGI (HOP-18 NSCLC) was 8.34 µM and the TGI (SNB-75 CNS) was 31.3 µM. The TGI (CAKI-1 renal) was 47.8 µM, the TGI (KM12 colon) was 33.4 µM and the TGI (MALME-3M melanoma) was 29.5 µM. It also gave a TGI (HOP-92 NSCLC) of 33.4 µM, a TGI (SK-OV-3 ovarian) of 72.5 µM and a TGI (HOP-62 NSCLC) of 40.6 µM. The TGI (OVCAR-3 ovarian) was 49.8 µM, the TGI (RPMI-8226 leukemia) was 49.1 µM and the TGI (M14 melanoma) was 64.3 µM. The TGI (OVCAR-5 ovarian) was 69.5 µM, the TGI (A549 NSCLC) was 45 µM and the TGI (HT29 colon) was 34 µM. For the same molecule, the TGI (LOX IMVI melanoma) was 31 µM, the TGI (COLO 205 colon) was 30.2 µM and the TGI (OVCAR-4 ovarian) was 66.1 µM. It also gave a TGI (NCI-H23 lung) of 28 µM, a TGI (NCI-H460 lung) of 43.7 µM and a TGI (NCI-H522 lung) of 27.6 µM. The TGI (DMS 114 small cell lung) was 35.9 µM, the TGI (DLD-1 colon) was 73.9 µM and the TGI (NCI-H226 lung) was 42.6 µM. For the same molecule, the TGI (OVCAR-8 ovarian) was 66.2 µM, the TGI (KM20L2 colon) was 34.1 µM and the TGI (TK-10 renal) was 61.6 µM. The TGI (K-562 leukemia) was over 100 µM, the TGI (MOLT-4 leukemia) was 61.7 µM and the TGI (SNB-19 CNS) was 79.6 µM. The TGI (HL-60(TB) leukemia) was over 100 µM, the TGI (U251 CNS) was 48.3 µM and the TGI (A498 renal) was 35.8 µM. It also gave a TGI (HCT-15 colon) of 43 µM, a TGI (786-0 renal) of 41.8 µM and a TGI (SF-268 CNS) of 41.9 µM. For the same molecule, the TGI (IGROV1 ovarian) was 52 µM, the TGI (SN12C renal) was 74.6 µM and the TGI (SNB-78 CNS) was 47.7 µM. It also gave a TGI (SF-295 CNS) of 38.1 µM, a TGI (SK-MEL-28 melanoma) of 29 µM and a TGI (SK-MEL-2 melanoma) of 30.4 µM. It also gave a TGI (UACC-257 melanoma) of 32.6 µM, a TGI (SK-MEL-5 melanoma) of 26.9 µM and a TGI (HCT-116 colon) of 26.5 µM. The TGI (UO-31 renal) was 34.1 µM.
